Measured values: paper PMC10399118, “Detection of endogenous NPY release determined by novel GRAB sensor in cultured cortical neurons” (Frontiers in Cellular Neuroscience, 2023)
Where two headings read alike, the source gives them in different places.

Columns and labels:
[1] = test system: cultured cortical neurons; experiment: sRGECO calcium sensor imaging of neuronal activity in cultured cortical neurons; assay type: cell-based, mouse
Experimental: Cortex was isolated from postnatal day 1–2 (P1-P2) mice (C57Bl/6, Charles River, Germany), and the meninges were removed in ice-cold dissection media containing 10% 10xHBSS (Gibco, Scotland, #14065056), 1% P/S, 1% sodium pyruvate (Gibco, Scotland, #11360070), 1% 1M HEPES (Gibco, Scotland), and 1.2% 45% glucose (Sigma-Aldrich, Germany). […]
Neurons were continuously perfused with artificial cerebrospinal fluid (aCSF) [120 mM NaCl, 5 mM KCl, 2 mM CaCl2, 2 mM MgCl2, 25 mM HEPES, and 30 mM D-glucose] at pH 7.4 and 32°C for all live imaging experiments. […] The collected images were recorded either at a frame rate of 1 frame/second when recording GRAB NPY1.0 alone or 4 frames/second when the sRGECO signal was also recorded. […]
(§1) Epifluorescence imaging was conducted under constant slow perfusion of aCSF buffers at a flow rate of approximately 1 ml/min. To induce neuronal activity, bicuculline (Bic; 50 μM; 14340, Sigma-Aldrich, Germany; dissolved in DMSO) and 4-aminopyridine (4-AP; 250 μM; 275875, Sigma-Aldrich, Germany; dissolved in Milli-Q water) was added together with aCSF, which was carefully measured after adding the compounds to confirm a pH of 7.4. […]

[2] = test system: GRAB NPY1.0 sensor; experiment: GRAB NPY1.0 sensor live-cell fluorescence imaging in cultured cortical neurons; assay type: cell-based, mouse
Experimental: Cortex was isolated from postnatal day 1–2 (P1-P2) mice (C57Bl/6, Charles River, Germany), and the meninges were removed in ice-cold dissection media containing 10% 10xHBSS (Gibco, Scotland, #14065056), 1% P/S, 1% sodium pyruvate (Gibco, Scotland, #11360070), 1% 1M HEPES (Gibco, Scotland), and 1.2% 45% glucose (Sigma-Aldrich, Germany). The cortices were cut into smaller pieces and incubated for 20–30 min at 37°C in papain solution containing 20 units/mL papain (Worthington Biochemical, #LS003126), 1mM L-cysteine (Sigma-Aldrich, Germany, #C7352), 1.9 mM CaCl2 (Sigma-Aldrich, Germany), 0.5 mM Kynurenic acid (Sigma-Aldrich, Germany, #K3375), pH adjusted to 7.4 with HCl and oxygenated with 95% O2 and 5% CO2. After incubation, the tissue was washed 3 times with Neurobasal A media and carefully triturated 3–5 times with a glass Pasteur pipette with a fire-polished tip. The dissociated cortical neurons were plated at a density of 100,000 or 150,000 cells/well onto the glia monolayered 18- or 25-mm coverslips, respectively, and grown in Neurobasal A media containing 1% Glutamax, 2% B-27, and 0.1% P/S. The day after seeding the neurons, half of the media was changed to remove any cell debris. Every 3–4 days, 1/4 of the media in the wells was removed and replaced with double of the removed volume of fresh neuronal media. The use of experimental animals was conducted in concordance with the Danish Research Ethical Committee for Experimental Animals (ethical permit #2017-15-0202-00092; PI: Andreas Toft Sørensen).
The following AAV vectors were used for experiments: GRAB NPY1.0 sensor (AAV2/9-hSyn-GRAB_NPY1.0; 6E+12−4.7E+13 vg/ml, 1 μL/well); sRGECO calcium sensor (AAV2/8-Ef1a-sRGECO-WPRE; Addgene plasmid #137125; RRID:Addgene_137125; 2.2E+13 vg/ml, 0.2 μL/well) ([Fenno et al., 2020]); NPY1-36 vector (AAV2/8-hSyn-PreproNPY-WPREpA; full-length peptide incl. CPON; produced in-house; 7.8E+12 vg/ml, 0.5 μL/well) ([Soud et al., 2019]). Primary cultures were transduced after 2–3 DIV and given […] to assure robust expression before being used for live-cell imaging.
Neurons were continuously perfused with artificial cerebrospinal fluid (aCSF) [120 mM NaCl, 5 mM KCl, 2 mM CaCl2, 2 mM MgCl2, 25 mM HEPES, and 30 mM D-glucose] at pH 7.4 and 32°C for all live imaging experiments. An RC-21BDW microscope flow chamber (Warner Instruments, Hamden, CT, USA) was used to hold the coverslips and to apply a flow of different aCSF and drug buffers during imaging at 20× with a Nikon Eclipse Ti microscope connected to two EM-CCD cameras (iXon3 897, Andor). A NIS-Elements software (Nikon, Tokyo, Japan) was used for recordings. GRAB NPY1.0 and sRGECO biosensors were excited with 488 nm and 561 nm laser lines (LED sapphire laser; Coherent Inc., Santa Clara, CA, USA), respectively. For the 488 nm LED laser excitation, a 491 nm mirror, and a 475/35 nm band-pass filter were used, while a 525/50 nm band-pass filter (AHF Analysentechnik, Tübingen-Pfrondorf, Germany) was used to detect emitted light. For the 561 nm LED laser excitation, a 561 nm mirror, and a 560/40 nm band-pass filter were used, while a 630/75 nm band-pass filter (AHF Analysentechnik, Tübingen-Pfrondorf, Germany) was used to detect emitted light. The collected images were recorded either at a frame rate of 1 frame/second when recording GRAB NPY1.0 alone or 4 frames/second when the sRGECO signal was also recorded. All recordings were performed using epifluorescence microscopy.
as §1

[3] = test system: GRAB NPY1.0 sensor; details: ref Wang et al., 2022, read-out: EC50 of GRAB NPY1.0 sensor response, cited from earlier work
From the text: Here, we report on the usage of the GRAB NPY1.0 sensor in mouse-cultured cortical neurons and address the question: can the sensor detect the release of endogenous NPY? This sensor, recently developed in the Yulong Li laboratory, Peking University of China, is one of six neuropeptide-based GRAB sensors engineered for detecting either SST, CCK, CRF, NTS, VIP or NPY ([Wang et al., 2022]). While it was shown that the SST, CCK, and CRF sensors can detect endogenously released neuropeptides ([Wang et al., 2022]), similar information is lacking on the NPY1.0 sensor. In our setup, we tested the NPY1. ...

[4] = transgene NPY cultures, BIBO3304 applied during Bic + 4-AP

Molecule | effect on high-frequency activity induced by Bic + 4-AP (sRGECO signal) ([1]; BIBO3304 applied to the cultures) | change of GRAB NPY1.0 fluorescence signal at baseline conditions ([2]; BIBO3304 1 μM applied at baseline, n = 90 neurons from 2 coverslips) | change of GRAB NPY1.0 fluorescence when added during Bic + 4-AP ([2]; NPY transgene (AAV-NPY) cortical cultures, BIBO3304 1 μM added to Bic 50 μM + 4-AP 250 μM, n = 128 neurons from 6 coverslips) | effect on GRAB NPY1.0 signal of cluster A during Bic + 4-AP [2, 4] | effect on GRAB NPY1.0 signal of clusters B and C during Bic + 4-AP [2, 4] | EC50 ([3]; HEK293T cells stably expressing the NPY1.0 sensor) | EC50 ([3]; rat cortical neurons transduced by a similar AAV9 vector with human synapsin promoter) | change of sRGECO fluorescent signal (neuronal activity) during continuous Bic + 4-AP perfusion ([1]; exogenous NPY added to primary cultures during Bic + 4-AP) | neurons expressing the GRAB NPY1.0 sensor that remained unresponsive ([2]; 1 μM exogenous NPY, naive mouse cortical cultures, 174 neurons from 9 coverslips) | EC50 ([2]; mouse cultured cortical neurons expressing GRAB NPY1.0, exogenous NPY1-36 0.3, 1, 30, 1000 nM in aCSF with 1% BSA, pH 7.4, 32°C, mean ΔF/F0, three-parameter fit, n = 130 neurons from 5 coverslips, read-out: EC50 of GRAB NPY1.0 fluorescence response (normalized dose-response curve))
NC(=O)NCc1ccc(CNC(=O)[C@@H](CCCN=C(N)N)NC(=O)C(c2ccccc2)c2ccccc2)cc1 [BIBO3304] | not per se affected | remained unchanged | significant drop in fluorescence | not affected | significantly reduced | – | – | – | – | –
Neuropeptide Y [NPY] | – | – | – | – | – | 40 nM | 0.7 nM | marked decrease | 8 out of 174 | 38 nM
